By IC50 is commonly meant the point on the concentration scale where inhibition reaches its midpoint.

These results are taken from patent publication US12240853B2, “Compounds useful in HIV therapy” (GlaxoSmithKline Intellectual Property (No.2) Limited, priority 2019, dated 2025).

Test [1] has as its system HIV pseudotyped virus (NL4-3 provirus, luciferase reporter), WT. As to the kind of experiment: PSV (pseudotyped virus) assay, WT. Particulars: Human immunodeficiency virus 1, NL43, 72 h, read-out: WT IC50.
Method: A pseudotyped virus assay (PSV) was used to assess the potency of the HIV inhibitor.
The PSV assay was performed by using U373 cells stably transformed to express human CD4, the primary receptor for HIV entry and either human CXCR4 or human CCR5 which are the co-receptors required for HIV entry as target cells for infection. […] This dose-range was applied to U373 cells and the pre-made pseudotyped virus added. The amount of luciferase signal produced after 3 days of culture was used to reflect the level of pseudotyped virus infection. An IC50, or the concentration of inhibitor required to reduce PSV infection by 50% from the infection containing no inhibitor was calculated. […] IC50 values were determined from a 10 point dose response curve using 3-4-fold serial dilution for each compound, which spans a concentration range>1000 fold.
These values are plotted against the molar compound concentrations using the standard four parameter logistic equation: y=((Vmax*x^n)/(K^n+x^n))+Y2
Test [2] relates to HIV pseudotyped virus, M184V. It counts as cell-based. Particulars: U373 cells (CD4, CXCR4 or CCR5), luciferase signal after 3 days.

Take `C#C[C@]1(COC(=O)CNC(=O)CCCCCC)O[C@@H](n2cnc3c(N)nc(F)nc32)C[C@@H]1O` [Example 34, ((2R,3S,5R)-5-(6-amino-2-fluoro-9H-purin-9-yl)-2-ethynyl-3-hydroxytetrahydrofuran-2-yl)methyl Heptanoylglycinate]: the IC50 in test [1] stood at 0.004 µM; in test [2], 0.025 µM.

For the compound `C#C[C@]1(COC(=O)COCCOCCOC)O[C@@H](n2cnc3c(N)nc(F)nc32)C[C@@H]1O` [Example 7, ((2R,3S,5R)-5-(6-amino-2-fluoro-9H-purin-9-yl)-2-ethynyl-3-hydroxytetrahydrofuran-2-yl)methyl 2-(2-(2-methoxyethoxy)ethoxy)acetate], the IC50 in test [1] turned out to be 0.004 µM; in test [2], 0.024 µM.

Turning to `C#C[C@]1(COC(=O)COCCOCCCC)O[C@@H](n2cnc3c(N)nc(F)nc32)C[C@@H]1O` [Example 8, ((2R,3S,5R)-5-(6-amino-2-fluoro-9H-purin-9-yl)-2-ethynyl-3-hydroxytetrahydrofuran-2-yl)methyl 2-(2-butoxyethoxy)acetate], the concentration for half-maximal inhibition (IC50) was determined as 0.002 µM in test [1] and 0.011 µM in test [2].

On to `C#C[C@]1(COC(=O)C(CCC)CCC)O[C@@H](n2cnc3c(N)nc(F)nc32)C[C@@H]1OC(=O)CCC` [Example 30, ((2R,3S,5R)-5-(6-amino-2-fluoro-9H-purin-9-yl)-3-(butyryloxy)-2-ethynyltetrahydrofuran-2-yl)methyl 2-propylpentanoate], for which the results for the IC50 in test [1] and in test [2] were 0.334 µM and 1.5 µM, respectively.

Turning to `C#C[C@]1(COC(=O)CCCC)O[C@@H](n2cnc3c(NC(=O)CCCCCCCCCCC)nc(F)nc32)C[C@@H]1O` [Example 28, ((2R,3S,5R)-5-(6-dodecanamido-2-fluoro-9H-purin-9-yl)-2-ethynyl-3-hydroxytetrahydrofuran-2-yl)methyl Pentanoate], the values for the IC50 in test [1] and in test [2] were 0.006 µM and 0.026 µM, respectively.

Regarding `C#C[C@]1(COC(=O)CCCC)O[C@@H](n2cnc3c(NC(=O)CCCCCCC)nc(F)nc32)C[C@@H]1O` [Example 26, ((2R,3S,5R)-2-ethynyl-5-(2-fluoro-6-octanamido-9H-purin-9-yl)-3-hydroxytetrahydrofuran-2-yl)methyl Pentanoate], the IC50 was found to be 0.007 µM in test [1] and 0.028 µM in test [2].

`C#C[C@]1(COC(=O)COCCOC)O[C@@H](n2cnc3c(N)nc(F)nc32)C[C@@H]1O` [Example 6, ((2R,3S,5R)-5-(6-amino-2-fluoro-9H-purin-9-yl)-2-ethynyl-3-hydroxytetrahydrofuran-2-yl)methyl 2-(2-methoxyethoxy)acetate]: the IC50 in test [1] was 0.004 µM; in test [2] it was 0.025 µM.

On to `C#C[C@]1(COC(=O)[C@H]2CC[C@H](C(C)(C)C)CC2)O[C@@H](n2cnc3c(N)nc(F)nc32)C[C@@H]1O` [Example 4, ((2R,3S,5R)-5-(6-amino-2-fluoro-9H-purin-9-yl)-2-ethynyl-3-hydroxytetrahydrofuran-2-yl)methyl trans-4-(tert-butyl)cyclohexane-1 carboxylate], for which the IC50 in test [1] was 0.003 µM; in test [2], 0.017 µM.

Take `C#C[C@]1(COC(=O)c2ccccc2)O[C@@H](n2cnc3c(N)nc(F)nc32)C[C@@H]1O` [Example 2, ((2R,3S,5R)-5-(6-amino-2-fluoro-9H-purin-9-yl)-2-ethynyl-3-hydroxytetrahydrofuran-2-yl)methyl Benzoate]: the half-inhibitory concentration (IC50) in test [1] amounted to 0.003 µM; in test [2], 0.013 µM.

For the compound `C#C[C@]1(COC(=O)CCCC)O[C@@H](n2cnc3c(N)nc(F)nc32)C[C@@H]1OC(=O)CCCCCCCC` [Example 22, (2R,3S,5R)-5-(6-amino-2-fluoro-9H-purin-9-yl)-2-ethynyl-2-((pentanoyloxy)methyl)tetrahydrofuran-3-yl Nonanoate], the IC50 in test [1] was determined as 0.007 µM; in test [2] it was 0.035 µM.

As for `C#C[C@]1(COC(=O)CCCC(=O)OC(COC(=O)CCCCCC)COC(=O)CCCCCC)O[C@@H](n2cnc3c(N)nc(F)nc32)C[C@@H]1O` [Example 12, ((2R,3S,5R)-5-(6-amino-2-fluoro-9H-purin-9-yl)-2-ethynyl-3-hydroxytetrahydrofuran-2-yl)methyl (1,3-bis(heptanoyloxy)propan-2-yl) glutarate], the values for the IC50 in test [1] and in test [2] were 0.034 µM and 0.151 µM, respectively.

On to `C#C[C@]1(COC(=O)CCCC)O[C@@H](n2cnc3c(N)nc(F)nc32)C[C@@H]1OC(=O)CC` [Example 24, ((2R,3S,5R)-5-(6-amino-2-fluoro-9H-purin-9-yl)-2-ethynyl-3-(propionyloxy)tetrahydrofuran-2-yl)methyl Pentanoate], for which the IC50 in test [1] was determined as 0.066 µM; in test [2], 0.351 µM.

With `C#C[C@]1(COC(=O)CCCC)O[C@@H](n2cnc3c(N)nc(F)nc32)C[C@@H]1OC(=O)CCCCCCCCCCCC` [Example 19, (2R,3S,5R)-5-(6-amino-2-fluoro-9H-purin-9-yl)-2-ethynyl-2-((pentanoyloxy)methyl)tetrahydrofuran-3-yl Tridecanoate], the IC50 is 0.018 µM in test [1] and 0.087 µM in test [2].

As for `C#C[C@]1(COC(=O)CCCCCCCCCCCCC)O[C@@H](n2cnc3c(N)nc(F)nc32)C[C@@H]1OC(=O)CCCCCCCCCCCCC` [Example 17, (2R,3S,5R)-5-(6-amino-2-fluoro-9H-purin-9-yl)-2-ethynyl-2-((tetradecanoyloxy)methyl)tetrahydrofuran-3-yl Tetradecanoate], the values for the concentration for half-maximal inhibition (IC50) in test [1] and in test [2] were 1.74 µM and 10.3 µM, respectively.

Turning to `C#C[C@]1(COC(=O)CCCC(=O)OCCCCCCCCCCCCCC)O[C@@H](n2cnc3c(N)nc(F)nc32)C[C@@H]1O` [Example 14, ((2R,3S,5R)-5-(6-amino-2-fluoro-9H-purin-9-yl)-2-ethynyl-3-hydroxytetrahydrofuran-2-yl)methyl Tetradecyl Glutarate], the IC50 in test [1] amounted to 0.033 µM; in test [2] it was 0.148 µM.

For the compound `C#C[C@]1(COC(=O)CCCC)O[C@@H](n2cnc3c(NC(=O)CCCCCCCCCCCCC)nc(F)nc32)C[C@@H]1O` [Example 27, ((2R,3S,5R)-2-ethynyl-5-(2-fluoro-6-tetradecanamido-9H-purin-9-yl)-3-hydroxytetrahydrofuran-2-yl)methyl Pentanoate], the IC50 stood at 0.008 µM in test [1] and 0.046 µM in test [2].

For `C#C[C@]1(COC(=O)CCCCCCCCCCCCCCCCCCC(=O)O)O[C@@H](n2cnc3c(N)nc(F)nc32)C[C@@H]1O` [Example 11, 20-(((2R,3S,5R)-5-(6-amino-2-fluoro-9H-purin-9-yl)-2-ethynyl-3-hydroxytetrahydrofuran-2-yl)methoxy)-20-oxoicosanoic Acid], the IC50 came to 0.008 µM in test [1] and 0.037 µM in test [2].

Turning to `C#C[C@]1(COC(=O)C(CCC)CCC)O[C@@H](n2cnc3c(N)nc(F)nc32)C[C@@H]1OC(=O)CCCCCCCCCCC` [Example 29, (2R,3S,5R)-5-(6-amino-2-fluoro-9H-purin-9-yl)-2-ethynyl-2-(((2-propylpentanoyl)oxy)methyl)tetrahydrofuran-3-yl Dodecanoate], the IC50 in test [1] was 0.238 µM; in test [2], 1.35 µM.

Turning to `C#C[C@]1(COC(=O)CCCC)O[C@@H](n2cnc3c(N)nc(F)nc32)C[C@@H]1OC(=O)CCCCCC` [Example 20, (2R,3S,5R)-5-(6-amino-2-fluoro-9H-purin-9-yl)-2-ethynyl-2-((pentanoyloxy)methyl)tetrahydrofuran-3-yl Heptanoate], the IC50 in test [1] came to 0.005 µM; in test [2], 0.025 µM.

For `C#C[C@]1(COC(=O)CCCC)O[C@@H](n2cnc3c(N)nc(F)nc32)C[C@@H]1OC(=O)CCCC` [Example 23, (2R,3S,5R)-5-(6-amino-2-fluoro-9H-purin-9-yl)-2-ethynyl-2-((pentanoyloxy)methyl)tetrahydrofuran-3-yl Pentanoate], the results for the IC50 in test [1] and in test [2] were 0.011 µM and 0.068 µM, respectively.

With `C#C[C@]1(COC(=O)Cc2ccccc2)O[C@@H](n2cnc3c(N)nc(F)nc32)C[C@@H]1O` [Example 3, [(2R,3S,5R)-5-(6-amino-2-fluoro-9H-purin-9-yl)-2-ethynyl-3-hydroxyoxolan-2-yl]methyl 2-phenylacetate], the IC50 in test [1] came out at 0.002 µM; in test [2], 0.01 µM.

As to `C#C[C@]1(COC(=O)[C@H]2CC[C@H](CCCCC)CC2)O[C@@H](n2cnc3c(N)nc(F)nc32)C[C@@H]1O` [Example 5, ((2R,3S,5R)-5-(6-amino-2-fluoro-9H-purin-9-yl)-2-ethynyl-3-hydroxytetrahydrofuran-2-yl)methyl trans-4-pentylcyclohexane-1-carboxylate], the IC50 stood at 0.001 µM in test [1] and 0.007 µM in test [2].

In the case of `C#C[C@]1(COC(=O)CCCC(=O)OC(COC(=O)CCCCCCCCCCCCC)COC(=O)CCCCCCCCCCCCC)O[C@@H](n2cnc3c(N)nc(F)nc32)C[C@@H]1O` [Example 13, ((2R,3S,5R)-5-(6-amino-2-fluoro-9H-purin-9-yl)-2-ethynyl-3-hydroxytetrahydrofuran-2-yl)methyl 1,3-bis(tetradecanoyloxy)propan-2-yl) glutarate], the IC50 in test [1] stood at 0.508 µM; in test [2] it was 3.61 µM.

On to `C#C[C@]1(COC(=O)CNC(=O)CCCCCCCCCCCCC)O[C@@H](n2cnc3c(N)nc(F)nc32)C[C@@H]1O` [Example 35, ((2R,3S,5R)-5-(6-amino-2-fluoro-9H-purin-9-yl)-2-ethynyl-3-hydroxytetrahydrofuran-2-yl)methyl Tetradecanoylglycinate], for which the half-inhibitory concentration (IC50) was found to be 0.001 µM in test [1] and 0.009 µM in test [2].

Consider `C#C[C@]1(COC(=O)[C@H](C)NC(=O)CCCCCC)O[C@@H](n2cnc3c(N)nc(F)nc32)C[C@@H]1O` [Example 36, ((2R,3S,5R)-5-(6-amino-2-fluoro-9H-purin-9-yl)-2-ethynyl-3-hydroxytetrahydrofuran-2-yl)methyl heptanoyl-L-alaninate], for which the concentration for half-maximal inhibition (IC50) in test [1] turned out to be 0.004 µM; in test [2] it was 0.021 µM.

Take `C#C[C@]1(COC(=O)CCCC)O[C@@H](n2cnc3c(NC(=O)CCC)nc(F)nc32)C[C@@H]1O` [Example 25, ((2R,3S,5R)-5-(6-butyramido-2-fluoro-9H-purin-9-yl)-2-ethynyl-3-hydroxytetrahydrofuran-2-yl)methyl Pentanoate]: the values for the IC50 in test [1] and in test [2] were 0.021 µM and 0.186 µM, respectively.
